Type in all cases: in vivo
Assay [1] has as its system Meloidogyne incognita. Put plainly: Meloidogyne incognita test (sand, lettuce, gall formation). As to conditions: Meloidogyne incognita, 336 h, 20 ppm, after 14 days; read-out: nematicidal efficacy (formation of galls). The procedure, abridged:
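Vessels held sand, diluted compound solution, M. incognita egg/larvae suspension and lettuce seeds, and the plants grew for 14 days. Efficacy in % came from root gall formation: 100% means no galls, 0% means galls equal to the untreated control.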

Assay [2] relates to Myzus persicae. Put plainly: Myzus persicae oral test. As to conditions: 120 h, after 5 days, read-out: efficacy. Here is the method:
Myzus persicae—Oral Test [table] To produce a suitable active compound preparation, 1 part by weight of active compound is dissolved with the stated parts by weight of solvent and made up to the desired concentration with water. 50 μl of the active compound preparation are transferred into microtitre plates and made up to a final volume of 200 μl with 150 μl of IPL41 insect medium (33%+15% sugar). Subsequently, the plates are sealed with parafilm, which a mixed population of green peach aphids (Myzus persicae) within a second microtitre plate is able to puncture and imbibe the solution through it. After 5 days, the efficacy in % is determined. 100% means that all the aphids have been killed; 0% means that no aphids have been killed.

The test system of assay [3] is Myzus persicae. As to the kind of experiment: Myzus persicae spray test (Chinese cabbage leaf discs). Particulars: foliar, 144 h, after 6 days, read-out: efficacy. Here is the method: Myzus persicae—Spray Test [table] To produce a suitable active compound preparation, 1 part by weight of active compound is dissolved with the specified parts by weight of solvent and made up to the desired concentration with water containing an emulsifier concentration of 1000 ppm. To produce further test concentrations, the formulation is diluted with emulsifier-containing water. Discs of Chinese cabbage leaves (Brassica pekinensis) infested by all stages of the green peach aphid (Myzus persicae) are sprayed with an active compound preparation of the desired concentration. After 6 days, the efficacy in % is determined. 100% means that all the aphids have been killed; 0% means that no aphids have been killed.

The test system of assay [4] is Tetranychus urticae. Put plainly: Tetranychus urticae spray test, OP-resistant. Particulars: foliar, 144 h, bean leaf discs, after 6 days, read-out: efficacy. Here is the method:
Tetranychus urticae—Spray Test, OP-Resistant
To produce a suitable active compound preparation, 1 part by weight of active compound is dissolved with the specified parts by weight of solvent and made up to the desired concentration with water containing an emulsifier concentration of 1000 ppm. To produce further test concentrations, the formulation is diluted with emulsifier-containing water.
Discs of bean leaves (Phaseolus vulgaris) infested with all stages of the greenhouse red spider mite (Tetranychus urticae) are sprayed with an active compound preparation of the desired concentration.
After 6 days, the efficacy in % is determined. 100% means that all the spider mites have been killed; 0% means that no spider mites have been killed.

As to `Cc1nc(C(=O)NS(=O)(=O)c2ccccc2Cl)cn1-c1c(F)cccc1F` [I-004], the pest or weed control at 20 ppm in assay [1] came to 90%; in assay [2], 70%.
On to `Cc1nc(C(=O)NS(=O)(=O)C(C)C)cn1-c1ccccc1Cl` [I-006], for which the pest or weed control at 20 ppm in assay [1] amounted to 100%. The pest or weed control at 500 g/ha in assay [3] was determined as 90%.
For `N#Cc1c(C(=O)NS(=O)(=O)c2ccccc2Cl)ncn1CCC(F)(F)F` [I-007], the pest or weed control at 20 ppm in assay [1] and in assay [2] was 70% throughout.
Regarding `COc1ccc(S(=O)(=O)NC(=O)c2ncn(CCC(F)(F)F)c2Br)cc1` [I-010], in assay [1], the pest or weed control at 20 ppm was determined as 90%. In addition, in assay [3] (100 g/ha), the pest or weed control at 100 g/ha turned out to be 90%. The pest or weed control at 500 g/ha in assay [3] came out at 70%.
Consider `O=C(NS(=O)(=O)Cc1ccccc1)c1ncn(CCC(F)(F)F)c1Cl` [I-028], for which the pest or weed control at 20 ppm in assay [1] is 100%. Besides, the pest or weed control at 500 g/ha in assay [4] is 90%.
`CCCn1cnc(C(=O)NS(=O)(=O)c2ccc(Cl)cc2)c1Cl` [I-042]: the pest or weed control at 20 ppm in assay [1] is 100%. Moreover, the pest or weed control at 500 g/ha in assay [3] was determined as 70%.
As for `CC(CC(F)(F)F)n1cnc(C(=O)NS(=O)(=O)c2ccc(Cl)cc2)c1Cl` (centres unmarked) [I-073], in assay [1], the pest or weed control at 20 ppm came out at 100%. Also, in assay [4], the pest or weed control at 500 g/ha was 90%.
The like results for `Cc1cccc(CS(=O)(=O)NC(=O)c2ncn(CCC(F)(F)F)c2Cl)c1` [I-083] were, in that order, 90% and 90%.
In the case of `COc1ccc(Cl)c(S(=O)(=O)NC(=O)c2nc(C)n(-c3cc(Cl)cc(Cl)c3)c2Cl)c1` [I-106], in assay [1], the pest or weed control at 20 ppm is 100%. Also, in assay [2] (4 ppm), the pest or weed control at 4 ppm was 100%.
As for `Cn1cc(C(=O)NS(=O)(=O)c2ccccc2Cl)nc1Cc1ccccc1Cl` [I-116], the pest or weed control at 20 ppm in assay [1] and in assay [2] was 90% throughout. The pest or weed control at 500 g/ha in assay [3] was 70%.
Consider `CC(C)S(=O)(=O)NC(=O)c1cn(C)c(Cc2cccc(Cl)c2)n1` [I-120], for which the pest or weed control at 20 ppm in assay [1] was determined as 100%. Besides, the pest or weed control at 500 g/ha in assay [3] is 90%.
In the case of `Cn1cc(C(=O)NS(=O)(=O)c2ccccc2Cl)nc1Cc1ccc(Cl)cc1` [I-121], in assay [1], the pest or weed control at 20 ppm turned out to be 70%. Besides, the pest or weed control at 500 g/ha in assay [4] stood at 90%.
Turning to `Cn1nc(C(=O)NS(C)(=O)=O)cc1-c1cc(Cl)ccn1` [I-127], the pest or weed control at 20 ppm in assay [1] and in assay [2] was 70% in each case. The pest or weed control at 500 g/ha in assay [3] stood at 90%.
For the molecule `O=C(NS(=O)(=O)c1ccc(Cl)cc1)c1cn(Cc2ccccc2Cl)cn1` [I-158], in assay [1], the pest or weed control at 20 ppm turned out to be 100%. For the same molecule, in assay [3], the pest or weed control at 500 g/ha was 90%.
As for `O=C(NS(=O)(=O)c1ccc(Cl)cc1)c1cn(Cc2cccc(Cl)c2)cn1` [I-160], the pest or weed control at 20 ppm in assay [1] was determined as 70%. For the same molecule, the pest or weed control at 500 g/ha in assay [4] is 70%.
With `O=C(NS(=O)(=O)c1ccccc1)c1cn(-c2cccc(Cl)c2)cn1` [I-172], in assay [1], the pest or weed control at 20 ppm amounted to 100%. Also, the pest or weed control at 500 g/ha in assay [4] was found to be 100%.
On to `O=C(NS(=O)(=O)c1ccccc1)c1cn(-c2cccc(C(F)(F)F)c2)cn1` [I-173], for which the pest or weed control at 20 ppm in assay [1] worked out at 100%. Also, in assay [4], the pest or weed control at 500 g/ha came to 90%.
As to `O=C(NS(=O)(=O)c1ccccc1Cl)c1cn(-c2ccc(C(F)(F)F)cc2Cl)cn1` [I-197], in assay [1], the pest or weed control at 20 ppm amounted to 100%. The pest or weed control at 500 g/ha in assay [4] amounted to 70%.
Turning to `O=C(NS(=O)(=O)c1ccccc1)c1cn(-c2ccccc2OC(F)(F)F)cn1` [I-214], the pest or weed control at 20 ppm in assay [1] worked out at 90%. The pest or weed control at 500 g/ha in assay [3] was 70%.
The like results for `O=C(NS(=O)(=O)c1c(Cl)cccc1Cl)c1cn(-c2ccccc2F)cn1` [I-220] were, in that order, 100% and 70%.
With `COc1ccc(Cl)c(S(=O)(=O)NC(=O)c2cn(-c3cc(F)cc(C(F)(F)F)c3)cn2)c1` [I-250], the pest or weed control at 20 ppm in assay [1] amounted to 100%. Moreover, in assay [2], the pest or weed control at 100 ppm was found to be 100%.
For the molecule `Cc1nc(C(=O)NS(=O)(=O)c2c(Cl)cccc2Cl)cn1-c1ccccc1` [I-253], the pest or weed control at 20 ppm in assay [1] turned out to be 100%. For the same molecule, the pest or weed control at 100 ppm in assay [2] came to 100%. In assay [3], the pest or weed control at 500 g/ha is 90%.
`Cc1ccc(S(=O)(=O)NC(=O)c2cn(-c3ccccc3)c(C)n2)cc1` [I-254]: the pest or weed control at 20 ppm in assay [1] came out at 100%. The pest or weed control at 100 ppm in assay [2] is 100%. In addition, the pest or weed control at 500 g/ha in assay [3] was determined as 90%.
On to `Cc1nc(C(=O)NS(=O)(=O)c2ccccc2)cn1-c1ccccc1F` [I-255], for which the pest or weed control at 20 ppm in assay [1] worked out at 100%. Also, the pest or weed control at 500 g/ha in assay [4] worked out at 70%.
Consider `Cc1nc(C(=O)NS(=O)(=O)c2ccccc2Cl)cn1-c1cccc(Cl)c1Cl` [I-264], for which the pest or weed control at 20 ppm in assay [1] came out at 90%. Also, the pest or weed control at 100 ppm in assay [2] was determined as 100%. Also, the pest or weed control at 500 g/ha in assay [3] is 70%.
With `COc1ccc(Cl)c(S(=O)(=O)NC(=O)c2cn(-c3ccccc3Cl)c(C)n2)c1` [I-266], the pest or weed control at 20 ppm came to 100% in assay [1] and 90% in assay [2].
Take `Cc1nc(C(=O)NS(=O)(=O)c2ccccc2Cl)cn1-c1ccccc1Cl` [I-269]: the pest or weed control at 20 ppm is 90% in assay [1] and 70% in assay [2]. Also, the pest or weed control at 500 g/ha in assay [3] turned out to be 70%.
For the molecule `O=C(NS(=O)(=O)c1c(Cl)cccc1Cl)c1cn(-c2cc(Cl)cc(C(F)(F)F)c2)cn1` [I-286], the pest or weed control at 20 ppm in assay [1] worked out at 100%; in assay [2], 90%.
For `Cc1cc(-n2cnc(C(=O)NS(=O)(=O)c3c(Cl)cccc3Cl)c2)cc(C(F)(F)F)c1` [I-291], in that order: 90% and 90%.
As for `COc1ccc(Cl)c(S(=O)(=O)NC(=O)c2cn(-c3cc(Cl)c(Br)c(Cl)c3)cn2)c1` [I-314], the pest or weed control at 20 ppm in assay [1] stood at 90%. In assay [3], the pest or weed control at 500 g/ha amounted to 70%.
Turning to `Cc1nc(C(=O)NS(=O)(=O)c2c(Cl)cccc2Cl)cn1-c1cc(Cl)cc(Cl)c1` [I-317], the pest or weed control at 20 ppm in assay [1] worked out at 100%; in assay [2], 90%. Moreover, the pest or weed control at 500 g/ha in assay [3] turned out to be 90%.
On to `Cc1nc(C(=O)NS(=O)(=O)c2cc(Cl)ccc2Cl)cn1-c1cc(F)cc(Cl)c1` [I-330], for which the pest or weed control at 20 ppm in assay [1] is 100%. In assay [4], the pest or weed control at 500 g/ha came out at 70%.
As for `O=C(NS(=O)(=O)c1cc(Cn2cccn2)ccc1Cl)c1cn(-c2cc(Cl)cc(C(F)(F)F)c2)cn1` [I-346], in assay [1], the pest or weed control at 20 ppm amounted to 70%. In addition, the pest or weed control at 500 g/ha in assay [3] turned out to be 70%.
Regarding `COc1ccc(Cl)c(S(=O)(=O)NC(=O)c2cn(C)c(Cc3ccccc3)n2)c1` [I-373], in assay [1], the pest or weed control at 20 ppm was found to be 70%. The pest or weed control at 500 g/ha in assay [4] stood at 90%.
Turning to `Cc1nc(C(=O)NS(=O)(=O)c2c(F)cccc2NC(C)C)cn1-c1cc(F)cc(F)c1` [I-385], the pest or weed control at 20 ppm in assay [1] is 100%. In addition, the pest or weed control at 500 g/ha in assay [3] is 70%.
For `CCSc1cccc(Cl)c1S(=O)(=O)NC(=O)c1cn(-c2cc(Cl)cc(Cl)c2)cn1` [I-391], the pest or weed control at 20 ppm in assay [1] is 100%. Moreover, the pest or weed control at 500 g/ha in assay [4] is 70%.
In the case of `CC(C)Nc1cccc(F)c1S(=O)(=O)NC(=O)c1cn(-c2cc(Cl)cc(Cl)c2)cn1` [I-392], the pest or weed control at 20 ppm in assay [1] and in assay [2] was 100% each time. Moreover, the pest or weed control at 500 g/ha in assay [3] amounted to 90%.
Take `COc1ccc(Cl)c(S(=O)(=O)NC(=O)c2cn(-c3cc(Cl)cc(C(F)(F)F)c3)c(C(C)C)n2)c1` [I-401]: in assay [1], the pest or weed control at 20 ppm was 70%. Also, the pest or weed control at 500 g/ha in assay [3] is 90%.
For the molecule `CC(C)Oc1ccc(Cl)c(S(=O)(=O)NC(=O)c2nc(Cl)n(C3CC3C(F)(F)F)c2Cl)c1` (centres unmarked) [I-460], the pest or weed control at 20 ppm in assay [1] was 100%; in assay [2], 70%.
For `COc1ccc(Cl)c(S(=O)(=O)NC(=O)c2ncn(-c3ccc(Cl)cc3)c2C(C)C)c1` [I-483], the pest or weed control at 20 ppm in assay [1] came to 70%. The pest or weed control at 500 g/ha in assay [4] turned out to be 80%.
For `COc1ccc(Cl)c(S(=O)(=O)NC(=O)c2ncn(-c3cc(F)ccc3F)c2C2CC2)c1` [I-490], in assay [1], the pest or weed control at 20 ppm was found to be 90%.
Same read-out and setting: for `COc1ccc(Cl)c(S(=O)(=O)NC(=O)c2ncn(-c3cc(F)ccc3F)c2C(C)C)c1` [I-491] the value was 100%.
`CC(C)S(=O)(=O)NC(=O)c1nc(Cl)n(CCC(F)(F)F)c1Cl` [I-492]: the pest or weed control at 500 g/ha in assay [4] stood at 90%.
